# Test results taken from patent US12023335B2, “Method for treating pancreatic cancer” (PTC THERAPEUTICS, INC., priority 2018, dated 2024).
# Tests used:
# Aspc1 cells [1] = test: Cell cycle analysis by flow cytometry (DNA content, PH3) in Aspc1 cells; format: cell-based, human
# Method: (§1) Cells were seeded into 12-well or 6-well plates such that 16 hours later they would be approximately 30-50% confluent. Cells were then treated for 24 hours with either DMSO (<0.003%), Compound 1 (100 nM or 1 μM), or 100 nM nocodazole (Sigma, M1404). Following treatment, cells were harvested and fixed in ice-cold 70% ethanol for a minimum of one hour. Following fixation, cells were re-suspended in PBS+2% FBS+3 μM DAPI (BioLegend, 422801) or 0.25 μg 7-AAD (BD Pharmingen, 559925), and analyzed on a MACSQuant® Analyzer 10 (Miltenyi Biotec) or BD LSR II™. For cell cycle analysis time course experiments, cells were prepared as described above, except treated for 24, 48, or 72 hours. Data was analyzed using FlowJo software. Percent populations in G2/M were identified using the univariate cell cycle platform offered by FlowJo software. Percent populations >4N were determined by gating above the 4N population of DMSO-treated cells. (FIG. 1b, FIG. 1c, FIG. 2a, FIG. 2b, FIG. 10e, and FIG. 10g)
# For phospho-Histone H3 (PH3) staining, cells were fixed and permeabilized according to manufacturer's instructions using the eBioscience Foxp3/Transcription Factor Staining Buffer Set (ThermoFisher, 00-5523-00). Cells were blocked with Fc Block (BD Biosciences, 564220) and stained using a PH3 (Ser10) antibody (BioLegend, 650805) with 5 uL per million cells (45 min, room temp, dark). Samples were analyzed on a BD Fortessa™ and analyzed by FlowJo software. (FIG. 1d and FIG. 3a)
# BMI-1 = test: Western blot of BMI-1 levels in PDA cell lines; format: cell-based, human; conditions: Aspc1, MiaPaCa-2, Panc1 cells; 0.1 μM or 1.0 μM, 24 hours (FIG. 10a)
# Method: Western blotting was carried out on lysates isolated from treated cells. Cells were lysed using RIPA buffer (50 mM Tris, pH 7.4, 150 mM NaCl, 1% Nonidet P-40, 0.1% SDS, 0.5% deoxycholate) supplemented with cOmplete™ EDTA-free Protease Inhibitor Cocktail (Sigma, 11836170001) and Halt™ Phosphatase Inhibitor Cocktail (ThermoFisher, 78420). Lysates were quantified using the Pierce BCA Protein Assay Kit (ThermoFisher, 23227), diluted in SDS sample buffer, resolved by SDS-PAGE (15-30 μg/sample), and transferred onto PVDF membranes. Membranes were blocked with 5% w/v nonfat dry milk in TBS-T (0.1% Tween20) and primary antibodies were incubated overnight at 4° C., diluted in 5% BSA in TBS-T at the indicated concentrations. HRP-conjugated secondary antibodies were incubated in blocking buffer for 1 hour at room temperature before detection using Super Digital-ECL™ substrate solution (Kindle Biosciences, R1002). (FIG. 5b, FIG. 10a and FIG. 11b)
# Western Blot Antibodies: • Bmi1: Cell Signaling, #5856, 1:1000 • Vinculin: Cell Signaling, #4650S, 1:1000 • Beta-tubulin: Cell Signaling, #2146S, 1:1000 P-Glycoprotein Substrate Activity Experiment
# Aspc1 cells [2] = test: Aspc1 cell viability over time (AlamarBlue proliferation curves); format: cell-based, human; conditions: 0.1 μM or 1.0 μM, relative to vehicle (FIG. 1a)
# Method: For proliferation curves, cells were plated in 96-well plates (Corning, 3603) and allowed to seed overnight. Replicate plates were plated for each time point since viability measurements were an endpoint procedure. The following day, cells were treated with Compound at indicated concentrations and treated with DMSO at the highest used concentration (always below 0.003%). Cells were treated for 96 hours, and viability was determined every 24 hours using AlamarBlue reagent (BioRad, BUF012B). Briefly, 10 μL of AlamarBlue was added to each well (100 μL), mixed briefly, and allowed to incubate at 37° C. and 5% CO2 for 4 hours. Following incubation, fluorescence was measured on a Promega multimode microplate reader. For analysis, background levels were subtracted from raw results, which were then normalized to be represented as a fold change compared to DMSO-treated cells on Day 0. All assays were carried out in at least triplicate with 4-8 technical replicates per treatment group, per experiment. (FIG. 1a and FIG. 10b)
# [3] = tested on: J1002VEH and J1002TAM cells; test: Cell cycle analysis of J1002VEH and J1002TAM cells; format: cell-based, mouse
# Method: as §1
smiles,measurement,setting,value
"Cc1nc2ccc(F)cc2n1-c1nc(N)c(F)c(Nc2ccc(C(F)(F)F)cc2)n1 [Compound 1, 5-fluoro-2-(6-fluoro-2-methyl-1H-benzo[d]imidazol-1-yl)-N4-[4-(trifluoromethyl)phenyl]pyrimidine-4,6-diamine]","cell cycle arrest (percent cells in G0/G1, S, G2/M; percent in mitosis PH3+/4N)","Aspc1 cells [1]; 0.1 μM or 1.0 μM, 24 hours (FIGS. 1b-1d)",dose and time-dependent effect in cell cycle arrest
same,percent of Aspc1 cells with DNA content >4N (polyploidy),"Aspc1 cells [1]; 0.1 μM or 1.0 μM, 24, 48, 72 hours (FIGS. 2a, 2b)",dose and time-dependent increase in the amount of human PDA cells affected by polyploidy
same,mitotic arrest and apoptosis,Aspc1 cells [1]; multiple PDA cell lines (summary statement),induce mitotic arrest and apoptosis in multiple PDA cell lines
same,BMI-1 levels relative to vinculin,BMI-1,consistent reduction in BMI-1 protein expression in various cell types
same,relative Aspc1 cell viability over time,Aspc1 cells [2],dose and time-dependent decrease in human PDA cell viability
same,cell cycle distribution / polyploidy of J1002VEH and J1002TAM cells,"[3]; 1.0 μM, 24 hours (FIGS. 10d-10g)",dose and time-dependent increase in the amount of BMI-1 dependent cells affected by polyploidy
same,BMI-1 hyperphosphorylation (conclusion from FIG. 10 data as a whole),[3]; data taken as a whole,induces BMI-1 hyperphosphorylation indirectly as a result of mitotic arrest
